Measurements from patent publication US9580435B2, “Pyrrolo[2,3-D]pyrimidine derivatives as CB2 receptor agonists” (priority 2013, dated 2017).
Read-outs that look alike come from different tables or passages of the source.

Assays:
[1] = target: T1, human CB1 receptors (Homo sapiens, UniProt P21554); experiment: functional cAMP assay, CHO cells expressing human CB1 receptors; type: cell-based
T1 construct: expressed in transfected cells; host or cells: CHO cells
Description: (§1) CHO cells expressing human CB1 or CB2 receptors are seeded 17-24 hours prior to the experiment 50.000 cells per well in a black 96 well plate with flat clear bottom (Corning Costar #3904) in DMEM (Invitrogen No. 31331), lx HT supplement, with 10% fetal calf serum and incubated at 5% CO2 and 37° C. in a humidified incubator. The growth medium was exchanged with Krebs Ringer Bicarbonate buffer with 1 mM IBMX and incubated at 30° C. for 30 min. Compounds were added to a final assay volume of 100 μl and incubated for 30 min at 30° C. Using the cAMP-Nano-TRF detection kit the assay (Roche Diagnostics) was stopped by the addition of 50 μl lysis reagent (Tris, NaCl, 1.5% Triton X100, 2.5% NP40, 10% NaN3) and 50 μl detection solutions (20 μM mAb Alexa700-cAMP 1:1, and 48 μM Ruthenium-2-AHA-cAMP) and shaken for 2 h at room temperature. The time-resolved energy transfer is measured by a TRF reader (Evotec Technologies GmbH), equipped with a ND:YAG laser as excitation source. The plate is measured twice with the excitation at 355 nm and at the emission with a delay of 100 ns and a gate of 100 ns, total exposure time 10 s at 730 (bandwidth 30 nm) or 645 nm (bandwidth 75 nm), respectively. The FRET signal is calculated as follows: FRET=T730-Alexa730-P(T645-B645) with P=Ru730-B730/Ru645-B645, where T730 is the test well measured at 730 nM, T645 is the test well measured at 645 nm, B730 and B645 are the buffer controls at 730 nm and 645 nm, respectively. cAMP content is determined from the function of a standard curve spanning from 10 μM to 0.13 nM cAMP.
(§2) EC50 values were determined using Activity Base analysis (ID Business Solution, Limited). The EC50 values for a wide range of cannabinoid agonists generated from this assay were in agreement with the values published in the scientific literature.

[2] = target: T2, human CB2 receptors (Homo sapiens, UniProt P34972); experiment: functional cAMP assay, CHO cells expressing human CB2 receptors; type: cell-based
T2 construct: expressed in transfected cells; host or cells: CHO cells
Description: as §1, §2

[3] = human EC50, functional cAMP assay, CHO cells expressing human CB2, read-out: EC50:CB2

T2 sequence (P34972 whole entry): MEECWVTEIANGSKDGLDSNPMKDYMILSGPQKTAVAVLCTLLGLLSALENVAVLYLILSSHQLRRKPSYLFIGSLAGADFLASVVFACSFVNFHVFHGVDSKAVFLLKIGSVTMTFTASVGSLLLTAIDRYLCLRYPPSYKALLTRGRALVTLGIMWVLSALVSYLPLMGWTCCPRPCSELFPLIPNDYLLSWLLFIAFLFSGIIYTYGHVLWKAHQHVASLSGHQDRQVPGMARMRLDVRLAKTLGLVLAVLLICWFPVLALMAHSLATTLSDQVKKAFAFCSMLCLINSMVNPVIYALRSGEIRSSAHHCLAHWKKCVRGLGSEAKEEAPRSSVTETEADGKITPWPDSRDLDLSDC
T1 sequence (P21554 whole entry): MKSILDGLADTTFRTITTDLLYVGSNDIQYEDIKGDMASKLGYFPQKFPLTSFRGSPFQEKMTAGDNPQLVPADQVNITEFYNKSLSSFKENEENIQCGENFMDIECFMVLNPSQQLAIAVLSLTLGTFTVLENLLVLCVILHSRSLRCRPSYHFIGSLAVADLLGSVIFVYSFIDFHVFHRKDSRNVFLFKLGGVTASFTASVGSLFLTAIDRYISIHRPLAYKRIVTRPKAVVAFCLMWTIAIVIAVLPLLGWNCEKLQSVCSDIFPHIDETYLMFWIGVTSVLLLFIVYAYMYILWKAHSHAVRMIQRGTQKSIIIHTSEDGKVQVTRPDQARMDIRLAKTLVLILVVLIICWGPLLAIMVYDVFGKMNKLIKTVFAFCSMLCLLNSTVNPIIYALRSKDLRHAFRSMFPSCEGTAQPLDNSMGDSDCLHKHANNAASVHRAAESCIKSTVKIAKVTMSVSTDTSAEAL

| SMILES | EC50 [1] [nM] | EC50 [2] [nM] | EC50 [2, 3] [nM] |
| --- | --- | --- | --- |
| Cc1nnc(Cn2ccc3c(N4CCC(F)(F)C4)nc(C(C)(C)C)nc32)n1C [Example 11, 2-tert-butyl-4-(3,3-difluoropyrrolidin-1-yl)-7-[(4,5-dimethyl-1,2,4-triazol-3-yl)methyl]pyrrolo[2,3-d]pyrimidine] | > 10000 | 30.8 |  |
| CC(C)(C)c1nc(N2CC3(COC3)C2)c2ccn([C@@H]3CCOC3)c2n1 [Example 17, 6-[2-tert-butyl-7-[(3R)-oxolan-3-yl]pyrrolo[2,3-d]pyrimidin-4-yl]-2-oxa-6-azaspiro[3.3]heptane] | > 10000 | 61.8 |  |
| CC(C)(C)c1nc(N2CCC(F)(F)C2)c2ccn(Cc3c[nH]nc3C(F)(F)F)c2n1 [Example 41, 2-tert-butyl-4-(3,3-difluoropyrrolidin-1-yl)-7-[[3-(trifluoromethyl)-1H-pyrazol-4-yl]methyl]pyrrolo[2,3-d]pyrimidine] | 1840 | 13.5 |  |
| Cc1nonc1Cn1ccc2c(N3CCC(F)(F)C3)nc(C(C)(C)C)nc21 [Example 9, 3-[[2-tert-butyl-4-(3,3-difluoropyrrolidin-1-yl)pyrrolo[2,3-d]pyrimidin-7-yl]methyl]-4-methyl-1,2,5-oxadiazole] | > 10000 | 9.5 |  |
| CC(C)(C)c1nc(N2CC3(COC3)C2)c2ccn([C@H]3CCOC3)c2n1 [Example 16, 6-[2-tert-butyl-7-[(3S)-oxolan-3-yl]pyrrolo[2,3-d]pyrimidin-4-yl]-2-oxa-6-azaspiro[3.3]heptane] | > 10000 | 78.7 |  |
| CC(C)(C)c1nc(N2CC3(COC3)C2)c2ccn(Cc3ccccc3Cl)c2n1 [Example 14, 6-[2-tert-butyl-7-[(2-chlorophenyl)methyl]pyrrolo[2,3-d]pyrimidin-4-yl]-2-oxa-6-azaspiro[3.3]heptane] | > 10000 | 15.3 |  |
| CC(C)(C)c1nc(N2CCC(O)C2)c2ccn(Cc3c[nH]nc3C(F)(F)F)c2n1 (stereo not drawn) [Example 40, 1-[2-tert-butyl-7-[[3-(trifluoromethyl)-1H-pyrazol-4-yl]methyl]pyrrolo[2,3-d]pyrimidin-4-yl]pyrrolidin-3-ol] | > 10000 | 35.6 |  |
| Cn1nnnc1Cn1ccc2c(N3CCC(F)(F)C3)nc(C(C)(C)C)nc21 [Example 12, 2-tert-butyl-4-(3,3-difluoropyrrolidin-1-yl)-7-[(1-methyltetrazol-5-yl)methyl]pyrrolo[2,3-d]pyrimidine] | > 10000 | 14 |  |
| Cc1nonc1Cn1ccc2c(N3CC4(COC4)C3)nc(C(C)(C)C)nc21 [Example 22, 6-[2-tert-butyl-7-[(4-methyl-1,2,5-oxadiazol-3-yl)methyl]pyrrolo[2,3-d]pyrimidin-4-yl]-2-oxa-6-azaspiro[3.3]heptane] | > 10000 | 48.4 |  |
| CC(C)(C)c1nc(N2CCC(F)(F)C2)c2ccn(Cc3ncccc3Cl)c2n1 [Example 7, 2-tert-butyl-7-[(3-chloropyridin-2-yl)methyl]-4-(3,3-difluoropyrrolidin-1-yl)pyrrolo[2,3-d]pyrimidine] | > 10000 | 4.2 |  |
| CC(C)(C)c1nc(N2CC3(COC3)C2)c2ccn(Cc3cccnc3Cl)c2n1 [Example 20, 6-[2-tert-butyl-7-[(2-chloropyridin-3-yl)methyl]pyrrolo[2,3-d]pyrimidin-4-yl]-2-oxa-6-azaspiro[3.3]heptane] | > 10000 | 24.2 |  |
| CC(=O)OC1CCN(c2nc(C(C)(C)C)nc3c2ccn3Cc2nnnn2C)C1 (stereo not drawn) [Example 35, [1-[2-tert-butyl-7-[(1-methyltetrazol-5-yl)methyl]pyrrolo[2,3-d]pyrimidin-4-yl]pyrrolidin-3-yl]acetate] | > 10000 |  | 278 |
| CC(C)(C)c1nc(N2CCC(O)C2)c2ccn([C@@H]3CCOC3)c2n1 (stereo partly drawn) [Example 39, 1-[2-tert-butyl-7-[(3R)-oxolan-3-yl]pyrrolo[2,3-d]pyrimidin-4-yl]pyrrolidin-3-ol] | > 10000 | 35 |  |
| CC(=O)OC1CCN(c2nc(C(C)(C)C)nc3c2ccn3Cc2nonc2C)C1 (stereo not drawn) [Example 37, [1-[2-tert-butyl-7-[(4-methyl-1,2,5-oxadiazol-3-yl)methyl]pyrrolo[2,3-d]pyrimidin-4-yl]pyrrolidin-3-yl]acetate] | > 10000 | 88.7 |  |
| CC(C)(C)c1nc(N2CCC(O)C2)c2ccn(Cc3nnnn3C3CC3)c2n1 (stereo not drawn) [Example 38, 1-[2-tert-butyl-7-[(1-cyclopropyltetrazol-5-yl)methyl]pyrrolo[2,3-d]pyrimidin-4-yl]pyrrolidin-3-ol] | > 10000 |  | 173 |
| CC(C)(C)c1nc(N2CC[C@H](O)C2)c2ccn(Cc3cccnc3Cl)c2n1 [Example 46, (3S)-1-[2-tert-butyl-7-[(2-chloropyridin-3-yl)methyl]pyrrolo[2,3-d]pyrimidin-4-yl]pyrrolidin-3-ol] | > 10000 | 5.1 |  |
| Cn1nnnc1Cn1ccc2c(N3CCC(O)C3)nc(C(C)(C)C)nc21 (stereo not drawn) [Example 34, 1-[2-tert-butyl-7-[(1-methyltetrazol-5-yl)methyl]pyrrolo[2,3-d]pyrimidin-4-yl]pyrrolidin-3-ol] | > 10000 |  | 134 |
| Cc1nnc(Cn2ccc3c(N4CCC(O)C4)nc(C(C)(C)C)nc32)o1 (stereo not drawn) [Example 33, 1-[2-tert-butyl-7-[(5-methyl-1,3,4-oxadiazol-2-yl)methyl]pyrrolo[2,3-d]pyrimidin-4-yl]pyrrolidin-3-ol] | > 10000 |  | 350 |
| CC(C)(C)c1nc(N2CC3(COC3)C2)c2ccn(Cc3ccccc3S(C)(=O)=O)c2n1 [Example 19, 6-[2-tert-butyl-7-[(2-methylsulfonylphenyl)methyl]pyrrolo[2,3-d]pyrimidin-4-yl]-2-oxa-6-azaspiro[3.3]heptane] | > 10000 | 14.6 |  |
| CC(C)(C)c1nc(N2CCC(O)C2)c2ccn(Cc3ccccc3S(C)(=O)=O)c2n1 (stereo not drawn) [Example 26, 1-[2-tert-butyl-7-[(2-methylsulfonylphenyl)methyl]pyrrolo[2,3-d]pyrimidin-4-yl]pyrrolidin-3-ol] | > 10000 | 16.8 |  |
| CC(C)(C)c1nc(N2CCC(O)C2)c2ccn(Cc3ccccc3C(F)(F)F)c2n1 (stereo not drawn) [Example 27, 1-[2-tert-butyl-7-[[2-(trifluoromethyl)phenyl]methyl]pyrrolo[2,3-d]pyrimidin-4-yl]pyrrolidin-3-ol] | > 10000 | 6.9 |  |
